In brackets after ≈: the same amount, converted by molar mass.
What was measured:
All Dermatophytes [1] = experiment: Microdilution assay, minimum inhibitory concentration (MIC); type: cell-based; details: for MIC50 / MIC90 / MIC Range: All Dermatophytes, n = 15 strains
Protocol: (§1) Multiple strains of Trichophyton rubrum, Trichophyton mentagrophytes and Epidermophyton flucossum were obtained from the culture collection facility at the Center for Medical Mycology (University Hospitals of Cleveland/Case Western Reserve University, Cleveland, Ohio). The minimum inhibitory concentration (MICs) for albaconazole, ciclopirox and terbinafine against each dermatophyte strain was determined according to the method approved by the CLSI Antifungal Subcommittee as a reference method for determining dermatophyte susceptibilities (Ghannoum et al., J. Clin. Microbiol. 42: 2977-2979, 2004). […] Microbiol. Infect. Dis. 45:203-206, 2003.
(§2) Tables 1 and 2 describe the minimum inhibitory concentrations (in ug/mL) and the minimum fungicidal concentrations (in ug/mL), respectively, for the active agents against the dermatophyte strains.

[2] = tested on: T. rubrum elevated terbinafine (MIC); experiment: as above; type: cell-based, Trichophyton rubrum; details: for MIC Range / MIC50 / MIC90: T. rubrum elevated terbinafine (MIC), n = 3 strains; for MIC50 / MIC90: Trichophyton rubrum
Protocol: as §1, §2

T. rubrum [3] = experiment: as above; type: cell-based, Trichophyton rubrum; details: n = 2 strains; for MIC50 / MIC90: Trichophyton rubrum
Protocol: as §1, §2

T. mentagrophytes [4] = experiment: Microdilution assay, minimum fungicidal concentration (MFC); type: cell-based, Trichophyton mentagrophytes; details: n = 5 strains
Protocol: as §1, §2

All Dermatophytes [5] = experiment: as above; type: cell-based; details: for MFC50 / MFC90 / MFC Range: All Dermatophytes, n = 15 strains
Protocol: as §1, §2

E. flucossum [6] = experiment: as above; type: cell-based, Epidermophyton flucossum; details: n = 5 strains
Protocol: as §1, §2

E. flucossum [7] = experiment: Microdilution assay, minimum inhibitory concentration (MIC); type: cell-based, Epidermophyton flucossum; details: n = 5 strains; for MIC50 / MIC90: Epidermophyton
Protocol: as §1, §2

[8] = tested on: T. rubrum elevated terbinafine (MIC); experiment: Microdilution assay, minimum fungicidal concentration (MFC); type: cell-based, Trichophyton rubrum; details: n = 3 strains
Protocol: as §1, §2

T. rubrum [9] = experiment: as above; type: cell-based, Trichophyton rubrum; details: n = 2 strains
Protocol: as §1, §2

T. mentagrophytes [10] = experiment: Microdilution assay, minimum inhibitory concentration (MIC); type: cell-based, Trichophyton mentagrophytes; details: n = 5 strains; for MIC50 / MIC90: Trichophyton mentagrophytes
Protocol: as §1, §2

Structure (SMILES) | MIC50 (All Dermatophytes [1]) [µg/mL] | MIC90 (All Dermatophytes [1]) [µg/mL] | MIC Range [2] [µg/mL] | MIC50 [2] [µg/mL] | MIC90 [2] [µg/mL] | MIC50 (T. rubrum [3]) [µg/mL] | MIC90 (T. rubrum [3]) [µg/mL] | MIC Range (T. rubrum [3]) [µg/mL] | MFC50 (T. mentagrophytes [4]) [µg/mL] | MFC90 (T. mentagrophytes [4]) [µg/mL] | MFC50 (All Dermatophytes [5]) [µg/mL] | MFC90 (All Dermatophytes [5]) [µg/mL] | MFC50 (E. flucossum [6]) [µg/mL] | MFC90 (E. flucossum [6]) [µg/mL] | MIC50 (E. flucossum [7]) [µg/mL] | MIC90 (E. flucossum [7]) [µg/mL] | MIC Range (E. flucossum [7]) [µg/mL] | MFC50 [8] [µg/mL] | MFC90 [8] [µg/mL] | MFC50 (T. rubrum [9]) [µg/mL] | further results
C[C@@H](n1cnc2cc(Cl)ccc2c1=O)[C@](O)(Cn1cncn1)c1ccc(F)cc1F [Albaconazole, (1R,2R)-7-chloro-3-[2-(2,4-difluorophenyl)-2-hydroxy-1-methyl-3-(1H-1,2,4-triazol-1yl)propyl]quinazolin-4(3H)-one] | 0.06 (≈ 0.139 µM) | 0.25 (≈ 0.579 µM) | 0.015 to 0.25 | 0.06 (≈ 0.139 µM) | 0.25 (≈ 0.579 µM) | 0.06 (≈ 0.139 µM) | 0.06 (≈ 0.139 µM) | 0.06 (≈ 0.139 µM) | 1 (≈ 2.32 µM) | 8 (≈ 18.5 µM) | 0.5 (≈ 1.16 µM) | 8 (≈ 18.5 µM) | 0.25 (≈ 0.579 µM) | 8 (≈ 18.5 µM) | 0.015 (≈ 0.0347 µM) | 0.015 (≈ 0.0347 µM) | 0.008 to 0.015 | 0.25 (≈ 0.579 µM) | 1 (≈ 2.32 µM) | 0.5 (≈ 1.16 µM) | MIC Range (All Dermatophytes [1]): 0.008 to 0.5 µg/mL; MICs overall, compared with ciclopirox and terbinafine (All Dermatophytes [1]; overall, in words): lower than those for ciclopirox and similar to those for terbinafine; effectiveness against terbinafine-resistant Trichophyton rubrum strains ([2]; compared with terbinafine, in words): more effective; MFC Range (T. mentagrophytes [4]): 0.5 to 8 µg/mL; MFC Range (All Dermatophytes [5]): 0.06 to 8 µg/mL; MFCs overall, compared with ciclopirox and terbinafine (All Dermatophytes [5]; overall, in words): lower than those for ciclopirox and similar to those for terbinafine; MFC Range (E. flucossum [6]): 0.06 to 8 µg/mL; MFC Range [8]: 0.06 to 1 µg/mL; MFC90 (T. rubrum [9]): 8 µg/mL (≈ 18.5 µM); MFC Range (T. rubrum [9]): 0.5 to 8 µg/mL; MIC50 (T. mentagrophytes [10]): 0.12 µg/mL (≈ 0.278 µM); MIC90 (T. mentagrophytes [10]): 0.5 µg/mL (≈ 1.16 µM); MIC Range (T. mentagrophytes [10]): 0.12 to 0.5 µg/mL
CN(C/C=C/C#CC(C)(C)C)Cc1cccc2ccccc12 [Terbinafine, terbinafine] | 0.002 (≈ 0.00686 µM) | 8 (≈ 27.5 µM) | 8 to 32 | 8 (≈ 27.5 µM) | 32 (≈ 110 µM) | 0.002 (≈ 0.00686 µM) | 0.002 (≈ 0.00686 µM) | 0.002 (≈ 0.00686 µM) | 0.015 (≈ 0.0515 µM) | 0.03 (≈ 0.103 µM) | 0.015 (≈ 0.0515 µM) | 32 (≈ 110 µM) | 0.03 (≈ 0.103 µM) | 0.03 (≈ 0.103 µM) | 0.002 (≈ 0.00686 µM) | 0.008 (≈ 0.0275 µM) | 0.002 to 0.008 | 32 (≈ 110 µM) | >64 | 0.008 (≈ 0.0275 µM) | MIC Range (All Dermatophytes [1]): 0.002 to 32 µg/mL; MFC Range (T. mentagrophytes [4]): 0.015 to 0.03 µg/mL; MFC Range (All Dermatophytes [5]): 0.008 µg/mL (≈ 0.0275 µM); MFC90 (T. rubrum [9]): 0.008 µg/mL (≈ 0.0275 µM); MFC Range (T. rubrum [9]): 0.008 µg/mL (≈ 0.0275 µM); MIC50 (T. mentagrophytes [10]): 0.002 µg/mL (≈ 0.00686 µM); MIC90 (T. mentagrophytes [10]): 0.004 µg/mL (≈ 0.0137 µM); MIC Range (T. mentagrophytes [10]): 0.002 to 0.004 µg/mL
Cc1cc(C2CCCCC2)n(O)c(=O)c1 [Ciclopirox, ciclopirox] | 0.12 (≈ 0.579 µM) | 0.25 (≈ 1.21 µM) | 0.12 (≈ 0.579 µM) | 0.12 (≈ 0.579 µM) | 0.12 (≈ 0.579 µM) | 0.12 (≈ 0.579 µM) | 0.12 (≈ 0.579 µM) | 0.12 (≈ 0.579 µM) | >32 | >32 | 16 (≈ 77.2 µM) | >32 | 4 (≈ 19.3 µM) | >32 | 0.12 (≈ 0.579 µM) | 0.12 (≈ 0.579 µM) | 0.12 (≈ 0.579 µM) | 16 (≈ 77.2 µM) | >32 | 16 (≈ 77.2 µM) | MFC90 (T. rubrum [9]): 32 µg/mL (≈ 154 µM); MFC Range (T. rubrum [9]): 16 to 32 µg/mL; MIC50 (T. mentagrophytes [10]): 0.25 µg/mL (≈ 1.21 µM); MIC90 (T. mentagrophytes [10]): 0.25 µg/mL (≈ 1.21 µM); MIC Range (T. mentagrophytes [10]): 0.12 to 0.25 µg/mL

— patent US10251885B2, “Azole antifungal compositions” (ALLERGAN PHARMACEUTICALS INTERNATIONAL LIMITED, priority 2009, dated 2019)
